From US6444850B1, “Fungicidial compounds having a fluorovinyloxphyenyl moiety and process for the preparation thereof” (priority 1997, dated 2002)

What was measured:
[1] = test system: Pyricularia oryzae Carvara KA301; assay type: in vivo; conditions: for C. V. (%) Fungicidal Activities against RCB at 10 ppm / C. V. (%) Fungicidal Activities against RCB at 10 ppm (TABLE 6): sprayed on Nakdong rice plant, control value from lesion area; for C. V. (%) RCB: 50 ppm, control value, rice blast
Botrytis cinerae = experiment: Fungicidal activity against cucumber gray mold rot (CGM) disease; assay type: in vivo; conditions: 50 ppm, control value
Phytophthora infestans = assay type: in vivo; conditions: 50 ppm; control value, tomato late blight
Puccinia recondita = experiment: Fungicidal activity against wheat leaf rust (WLR) disease; assay type: in vivo; conditions: for C. V. (%) WLR: 50 ppm, control value, wheat leaf rust; for C. V. (%), Fungicidal Activities against WLB at 10 ppm: Table 8 (Test Example 5)
Erysiphae graminis = experiment: Fungicidal activity against barley powdery mildew (BPM) disease; assay type: in vivo; conditions: for C. V. (%), Fungicidal activities against TLB at 10 ppm: Table 9 (Test Example 6); for C. V. (%) BPM: 50 ppm, control value, barley powdery mildew
Rhizoctonia solani AG-1 = experiment: Fungicidal activity against rice sheath blight (RSB) disease; conditions: 50 ppm, control value
Description: 50 ml of the resulting solution was sprayed on leaves of a host plant. The plant was kept at room temperature for 24 hours to let the solvent evaporate, and then, a pathogenic fungus was inoculated thereonto. The plant was held in a humidity chamber for 24 hours, transferred to an plant growth room kept at 20 to 27° C. and a relative humidity of 60 to 80% and kept to induce disease. Subsequently, the lesion area(L.A.) attacked by the pathogenic fungus was measured according to a method of Cho(Cho, K. Y., Search Report by Korea Research Institute of Chemical Technology (1989))”. This procedure was repeated twice for each test. 10% Acetone solution containing 250 ppm of Tween-20 was used as a control.
The fungicidal activity of the compound of the present invention is repressed by a control value (C.V.) calculated as; [formula]
Rhizoctonia solani AG-1 was cultured on a PDA medium(potato 200 g, dextrose 20 g, agar 20 g and distilled water 1 l) for 3 days and the agar disc (diameter 0.6 cm) was inoculated and cultured on sterilized wheat bran medium in a 1 l bottle at 26 to 28° C. for 7 days. A mycelial mass was ground using a homogenizer, inoculated uniformly on soil of a pot wherein a Nakdong rice plant having 2 or 3 leaves and an height of 5 cm grew, and kept in humidity polyvinyl chamber for 5 days to induce RSB. L.A. on a leaf sheath was measured to calculate an C.V.

Compound	C. V. (%) Fungicidal Activities against RCB at 10 ppm [1] [%]	C. V. (%) Fungicidal Activities against RCB at 10 ppm (TABLE 6) [1] [%]	C. V. (%) RCB [1] [%]	C. V. (%) CGM (Botrytis cinerae) [%]	C. V. (%) TLB (Phytophthora infestans) [%]	C. V. (%) WLR (Puccinia recondita) [%]	C. V. (%), Fungicidal activities against TLB at 10 ppm (Erysiphae graminis) [%]	C. V. (%) BPM (Erysiphae graminis) [%]	C. V. (%) RSB (Rhizoctonia solani AG-1) [%]	C. V. (%), Fungicidal Activities against WLB at 10 ppm (Puccinia recondita) [%]
CON=C(C(=O)OC)c1ccccc1COc1cccc(OC(F)=C(c2ccc(Cl)cc2)C(F)(F)F)c1 [Compound 90]	93	93	90	25	0	100	97	99	30	
CON=C(C(=O)OC)c1ccccc1COc1cccc(OC(F)=Cc2ccc(Oc3ccccc3)cc2)c1 [Compound 33]			20	20	10	83		94	5	
CON=C(C(=O)OC)c1ccccc1COc1cccc(OC(F)=Cc2ccc(Cl)cc2)c1 [Compound 39]			100	15	80	86	95	96	90	
CNC(=O)C(=COC)c1ccccc1COc1cccc(OC(F)=C(c2cccc(Cl)c2)C(F)(F)F)c1 [Compound 85]			16	16	22	73		0	10	
CNC(=O)C(=NOC)c1ccccc1COc1cccc(OC(F)=C(c2cccc(OC)c2)C(F)(F)F)c1 [Compound 74]	93	93	100	52	64	100	100	100	70	100
CCc1ccc(C(=C(F)Oc2cccc(OCc3ccccc3C(=NOC)C(=O)OC)c2)C(F)(F)F)cc1 [Compound 60]			0	0	18	98	97	100	40	93
CNC(=O)C(=COC)c1ccccc1COc1cccc(OC(F)=C(c2cccc(OC)c2)C(F)(F)F)c1 [Compound 72]			0	0	33	0		0	33	
CNC(=O)C(=COC)c1ccccc1COc1cccc(OC(F)=C(c2cccc(C)c2)C(F)(F)F)c1 [Compound 50]			0	5	33	0		0	25	
CNC(=O)C(=COC)c1ccccc1COc1cccc(OC(F)=C(c2ccc(C)cc2)C(F)(F)F)c1 [Compound 54]			16	9	20	16		41	20	
CON=C(C(=O)OC)c1ccccc1COc1cccc(OC(F)=C(c2cccc(Cl)c2)C(F)(F)F)c1 [Compound 86]			90	27	22	100	95	100	90	96
COC=C(C(=O)OC)c1ccccc1COc1cccc(OC(F)=Cc2ccc(F)cc2)c1 [Compound 36]	94	94	100	0	66	100	100	99	95	100
CNC(=O)C(=COC)c1ccccc1COc1cccc(OC(F)=C(c2cccc(F)c2)C(F)(F)F)c1 [Compound 93]			0	0	0	73		0	5	
COC(=O)C(=CSC)c1ccccc1COc1cccc(OC(F)=C(c2ccc(C)cc2)C(F)(F)F)c1 [Compound 57]			53	9	40	96		98	45	
CNC(=O)C(=NOC)c1ccccc1COc1cccc(OC(F)=C(c2cccc(C)c2)C(F)(F)F)c1 [Compound 52]	95	95	95	28	55	100	100	100	90	100
CCCCCCC(=C(F)Oc1cccc(OCc2ccccc2C(=COC)C(=O)NC)c1)C(F)(F)F [Compound 107]			0	21	3	80		41	10	
CON=C(C(=O)OC)c1ccccc1COc1cccc(OC(F)=Cc2cc(C)c(C)cc2C)c1 [Compound 23]			88	20	10	93	91	100	90	91
COC=C(C(=O)OC)c1ccccc1COc1cccc(OC(F)=C(c2cc(Cl)cc(Cl)c2)C(F)(F)F)c1 [Compound 102]			0	0	3	96	98	100	45	
COC=C(C(=O)OC)c1ccccc1COc1cccc(OC(F)=Cc2cccc(OC)c2)c1 [Compound 25]	95	95	95	0	43	100	91	98	92	99
CON=C(C(=O)OC)c1ccccc1COc1cccc(OC(F)=C(c2cccc(F)c2)C(F)(F)F)c1 [Compound 94]			41	0	40	100	99	100	60	95
COC=C(C(=O)OC)c1ccccc1COc1cccc(OC(F)=Cc2ccc(C)cc2)c1 [Compound 10]	95	95	97	0	50	100	97	95	92	96
